Tests used:
Assay type in all cases: in vivo
[1] = test system: Kir6.1-deficient mice treated with corticosterone; assay: Anxiety-related behavioral tests in corticosterone-treated Kir6.1-deficient mice; details: TP-014 treatment 2 weeks
Description: Wild-type mice (C57BL/6J, Japan SLC, two month-old) treated with corticosterone (at a dose of 5 mg/kg once a day for 2 weeks) and Kir6.1-deficient mice treated with corticosterone were used as disease models showing anxiety-like symptoms, to perform five behavioral tests regarding anxiety-related behaviors. The Kir6.1-deficient mice were obtained from Professor Susumu Seino, School of Medicine of Kobe University (Miki T., et al., Nature Medicine 2002, 8, 466-472).
The results of all the tests described above confirmed that chronic treatment with TP-014 (for 2 weeks) ameliorates exacerbated anxiety-like symptoms.

CaMKII [2] = assay: Protein phosphorylation in hippocampus of APP23 mice (immunoblotting); details: APP23 mice chronically treated orally, 1 mg/kg, two months
Text: Hippocampus samples were excised from APP23 mice, and hippocampal slices were suspended in an SDS sample buffer and analyzed for protein phosphorylation by immunoblotting using antibodies against CaMKII, CaMKIV and ERK (CaMKII: Fukunaga, et al., J. Biol. Chem. 1992, 267, 22527-22533; CaMKIV: Kasahara, et al., J. Biol. Chem. 2001, 276, 24044-24050; ERK: produced by Sigma-Aldrich). CaMKII, CaMKIV and ERK are all considered as molecules playing an important role in memory formation.

ob/ob mice = assay: Blood glucose levels in ob/ob mice; details: chronic treatment 1 mg/kg for 4 weeks, on and after week 3
Description: In order to determine the hypoglycemic effect of TP-014, ob/ob mice were measured for blood glucose levels using an assay kit (produced by Technicon International Inc.). The measurement was taken for 4 weeks, and chronic treatment with TP-014 (1 mg/kg) was continued for 4 weeks. […] Tolbutamide was used as a control drug. Kir6.2 channels bind to SUR1 ([…]) on the cell membrane to form channels. The mechanism of action is considered to be inhibition of Kir6.2 channels. Tolbutamide inhibits Kir6.2 channels by binding to SUR1.

APP23 mice [3] = assay: Y-maze test in APP23 mice; details: 1 mg/kg orally once a day for two months
Description: FIGS. 4-1 to 4-4 show the results of behavioral analyses. FIGS. 4-1 and 4-2 show the results of analysis of attentional function in wild-type mice (C57BL/6J, Japan SLC) v.s. APP23 mice (n=5 per group) by conventional Y-maze test. […] In the Y-maze test, mice are allowed to freely walk between three arms for 8 minutes. Here, the different arms are designated as A, B and C. A mouse positioned in arm A can move to arm B or C. If the mouse moves to arm B, then the mouse may move to arm C. Such a mouse moving sequentially between arms A, B and C is regarded as a mouse giving correct answer. […] The arms to which a mouse move are recorded in the order they are chosen by the mouse, and the number of times that a mouse moves between three arms within a specified time is counted and regarded as “total arm entries”. Further, the number of correct-answers (the number of times that a mouse moving sequentially between three different arms) is counted and regarded as the number of alternation behaviors (“No. of alternations”). The percentage of “No. of alternations” relative to the number obtained by subtracting 2 from “total arm entries” is expressed as percent alternation (%) which serves as an index for normal alternation behavior (correct answer rate in spatial working memory). […]

[4] = test system: Kir6.1-deficient mice (heterozygous); assay: Tail-suspension test and forced swim test in Kir6.1-deficient mice; details: chronic oral treatment for 2 weeks, 1 mg/kg
Text: Kir6.1-deficient mice (heterozygous, n=5 per group) were used to measure immobility time by tail-suspension test (FIG. 12-1) and forced swim test (FIG. 12-2) according to the same procedure as in Test Example 11. The heterozygous mice are those with half expression of Kir6.1 channels, unlike homozygous mice (complete Kir6.1-deficient mice) (homozygous mice die of arrhythmia after birth). […] The Kir6.1-deficient mice were obtained from Professor Susumu Seino, School of Medicine of Kobe University (Mild T., et al., Nature Medicine, 2002, 8, 466-472).

APP23 mice [5] = assay: Electrophysiological test of long-term potentiation (LTP) in hippocampal slices of APP23 mice; details: APP23 mice chronically treated
CaMKII [6] = assay: CaMKII activation in hippocampus of Kir6.2-deficient mice (immunoblotting); details: chronic treatment
Text: By following the same procedure as in Test Examples 4 to 7, hippocampal slices were suspended in an SDS sample buffer and analyzed by immunoblotting for GluAl (Ser-831), which is known as a molecule that is activated by activation of CaMKII and CaMKIV, to thereby investigate the intracellular mechanism of cognitive function impairment in Kir6.2-deficient mice. The results are shown in FIGS. 9-1 and 9-2 (FIG. 9-1: band images obtained by immunoblotting; FIG. 9-2: results of quantification of the signal intensity of bands). In the hippocampus of the Kir6.2-deficient mice, increased CaMKII activation was seen and no effect was found of chronic treatment with TP-014.

[7] = test system: olfactory bulbectomized mice (OBX mice); assay: Cognitive function in olfactory bulbectomized mice (Y-maze, novel object recognition and other tests); details: chronic oral treatment for 2 weeks
Description: The same experiment as in Test Example 4 was carried out using olfactory bulbectomized mice (OBX mice) as a neurodegenerative disease model. […] The OBX mice were prepared from 10-week-old DDY male mice (Nippon SLC, Hamamatsu, Japan). Olfactory bulbectomy surgery was carried out under anesthesia with pentobarbital sodium (50 mg/kg i.p.; Dainippon, Osaka, Japan). The mice were fixed on a stereotaxic apparatus to drill a 1 mm diameter hole in the skull above the olfactory bulb. The olfactory bulb was aspirated without causing damage to the prefrontal cortex. A sham group was prepared by the same procedure as that for the OBX group, without aspiration of olfactory bulb. One week was allowed for recovery from surgery, and behavioral analyses were performed on the day following the treatment with the test compound for 14 days (2 weeks).
The same model mice as described above were orally treated with a single dose of each of the test compounds (1 mg/kg), and analyzed after 1 hour by Y-maze test and novel object recognition test. The results are shown in FIGS. 22-3 and 22-4 (Y-maze test), and FIG. 22-5 (novel object recognition test).

## O=C(N[C@@H](c1ccccc1)[C@H]1[C@H]2C[C@@H]3C[C@](Cl)(C2)C[C@@]1(OC(=O)C(F)(F)F)C3)C(F)(F)F [TP-014, (1S,2R,3S,5S,7S)-5-chloro-2-((R)-phenyl(2,2,2-trifluoroacetamido)methyl)adamantan-1-yl 2,2,2-trifluoroacetate]
[1]
  anxiety-like symptoms: no ameliorating effect was observed
CaMKII [2]
  CaMKII phosphorylation in hippocampus: increased CaMKII phosphorylation
ob/ob mice
  blood glucose levels: significantly decreased
APP23 mice [3]
  attentional function (Y-maze test, percent alternation): significantly enhanced
[4]
  depression-like symptom (immobility time): no effect
APP23 mice [5]
  LTP (percent increase in the excitability of nerve cells): improved
CaMKII [6]
  CaMKII activation in hippocampus: no effect
[7]
  cognitive function impairment: significantly improved

Reference: patent US11608313B2, “Adamantylmethylamine derivative and use thereof as pharmaceutical” (TOHOKU UNIVERSITY, priority 2017, dated 2023)
